Assay results: US20240150338A1, “COMPOUNDS AND USE THEREOF FOR TREATMENT OF NEURODEGENERATIVE, DEGENERATIVE AND METABOLIC DISORDERS” (University of Florida Research Foundation, Incorporated, priority 2021, published 2024)

Tests used:
[1] = test system: PK1 neuroblastoma cells exposed to TPrP; assay: cells; type: cell-based; settings: Neuroblastoma cell, 96 h, read-out: TPrP EC50
[2] = Microsomal stability assay; type: in vitro ADME; settings: 1 mg/ml human hepatic microsomes, 37° C., half-life by LC-MS/MS; yes = stability ≥15 minutes
Method: The metabolic stability of some test compounds was determined in hepatic human and mouse microsomes. The compound was incubated with 1 mg/ml human or mouse hepatic microsomes at 37° C. with continuous shaking. Aliquots were removed at various time points between 5 minutes and 2 hours and acetonitrile was added to quench the reactions and precipitate the proteins. Samples were then centrifuged through 0.45 μm filter plates and half-lives were determined by LC-MS/MS.

SMILES | EC50 [1] [nM] | Stabilty in human microsomes ≥ 15 minutes [2]
COc1cc(-c2nc(Nc3ccc(S(C)(=O)=O)c(Cl)c3)sc2CO)cc(OC)n1 [SR-33800, (2-((3-Chloro-4-(methylsulfonyl)phenyl)amino)-4-(2,6-dimethoxypyridin-4-yl)thiazol-5-yl)methanol] | 55 | yes
Cc1cc(-c2csc(Nc3ccc(S(N)(=O)=O)cc3)n2)cc(C)n1 [SR-33791, 4-((4-(2,6-Dimethylpyridin-4-yl)thiazol-2-yl)amino)benzenesulfonamide] | 25 | yes
CS(=O)(=O)c1ccc(Nc2nc(-c3ccncc3)cs2)cc1 [SR-33788, N-(4-(methylsulfonyl)phenyl)-4-(pyridin-4-yl)thiazol-2-amine] | 80 | yes
Cc1cc(-c2nc(Nc3ccc(S(C)(=O)=O)c(Cl)c3)sc2CO)ccn1 [SR-33528, (2-((3-Chloro-4-(methylsulfonyl)phenyl)amino)-4-(2-methylpyridin-4-yl)thiazol-5-yl)methanol] | 80 | yes
COc1cc(-c2csc(Nc3ccc(S(N)(=O)=O)cc3)n2)cc(OC)n1 [SR-33790, 4-((4-(2,6-Dimethoxypyridin-4-yl)thiazol-2-yl)amino)benzenesulfonamide] | 35 | yes
Cc1ccc(-c2csc(Nc3ccc(S(C)(=O)=O)cc3)n2)cc1 [SR-35731, N-(4-(methylsulfonyl)phenyl)-4-(p-tolyl)thiazol-2-amine] | > 500 | yes
CNS(=O)(=O)c1ccc(-c2csc(Nc3ccc(S(C)(=O)=O)cc3)n2)cc1 [SR-34964, N-methyl-4-(2-((4-(methylsulfonyl)phenyl)amino)thiazol-4-yl)benzenesulfonamide] | 105 | yes
CS(=O)(=O)c1ccc(Nc2nc(-c3ccnc(Cl)c3)c(CO)s2)cc1Cl [SR-33529, (2-((3-Chloro-4-(methylsulfonyl)phenyl)amino)-4-(2-chloropyridin-4-yl)thiazol-5-yl)methanol] | 80 | yes
Cc1cc(-c2csc(Nc3ccc(S(C)(=O)=O)c(Cl)c3)n2)ccn1 [SR-33127, N-(3-chloro-4-(methylsulfonyl)phenyl)-4-(2-methylpyridin-4-yl)thiazol-2-amine] | 25 | yes
Cc1cc(-c2csc(Nc3ccc(S(C)(=O)=O)c(F)c3)n2)cc(C)n1 [SR-34974, 4-(2,6-Dimethylpyridin-4-yl)-N-(3-fluoro-4-(methylsulfonyl)phenyl)thiazol-2-amine] | 100 | yes
O=S(=O)(O)c1ccc(Nc2nc(-c3ccncc3)c(CO)s2)cc1 [SR-33878, 4-((5-(Hydroxymethyl)-4-(pyridin-4-yl)thiazol-2-yl)amino)benzenesulfonic acid] | 300 | yes
Cc1cc(-c2nc(Nc3ccc(S(C)(=O)=O)cc3)sc2CO)ccn1 [SR-33799, (4-(2-Methylpyridin-4-yl)-2-((4-(methylsulfonyl)phenyl)amino)thiazol-5-yl)methanol] | 60 | yes
Cc1cc(-c2csc(Nc3ccc(S(C)(=O)=O)cc3)n2)cc(C)n1 [SR-33786, 4-(2,6-Dimethylpyridin-4-yl)-N-(4-(methylsulfonyl)phenyl)thiazol-2-amine] | 20 | yes
CS(=O)(=O)c1ccc(Nc2nc(-c3ccnc(Cl)c3)cs2)cc1C(F)(F)F [SR-34982, 4-(2-Chloropyridin-4-yl)-N-(4-(methylsulfonyl)-3-(trifluoromethyl)phenyl)thiazol-2-amine] | 120 | yes
CNS(=O)(=O)c1ccc(-c2csc(Nc3ccc(C(F)(F)F)cc3)n2)cc1 [SR-35726, N-methyl-4-(2-((4-(trifluoromethyl)phenyl)amino)thiazol-4-yl)benzenesulfonamide] | 480 | yes
CS(=O)(=O)c1ccc(Nc2nc(-c3ccc(S(C)(=O)=O)cc3)cs2)cc1 [SR-35730, N,4-bis(4-(methylsulfonyl)phenyl)thiazol-2-amine] | 4 | yes
CS(=O)(=O)c1ccc(Nc2nc(-c3ccnc(Cl)c3)cs2)cc1Cl [SR-33129, N-(3-chloro-4-(methylsulfonyl)phenyl)-4-(2-chloropyridin-4-yl)thiazol-2-amine] | 65 | yes
COc1cc(-c2csc(Nc3ccc(S(C)(=O)=O)cc3)n2)cc(OC)n1 [SR-33789, 4-(2,6-Dimethoxypyridin-4-yl)-N-(4-(methylsulfonyl)phenyl)thiazol-2-amine] | 300 | yes

SMILES | EC50 [1] [nM] | Stabilty in human microsomes ≥ 15 minutes [2]
O=S(=O)(O)c1ccc(Nc2nc(-c3ccnc(Cl)c3)cs2)cc1 [SR-33128, 4-((4-(2-Chloropyridin-4-yl)thiazol-2-yl)amino)benzenesulfonic acid] | > 500 | yes
Cc1cc(-c2csc(Nc3ccc(CS(C)(=O)=O)cc3)n2)ccn1 [SR-35786, 4-(2-Methylpyridin-4-yl)-N-(4-((methylsulfonyl)methyl)phenyl)thiazol-2-amine] | 14 | yes
Cc1cc(-c2nc(Nc3ccc(S(=O)(=O)O)cc3)sc2CO)cc(C)n1 [SR-33801, 4-((4-(2,6-Dimethylpyridin-4-yl)-5-(hydroxymethyl)thiazol-2-yl)amino)benzenesulfonic acid] | 40 | yes
COc1cc(-c2nc(Nc3ccc(S(C)(=O)=O)cc3)sc2CO)cc(OC)n1 [SR-33796, (4-(2,6-Dimethoxypyridin-4-yl)-2-((4-(methylsulfonyl)phenyl)amino)thiazol-5-yl)methanol] | 450 | yes
CNS(=O)(=O)c1ccc(-c2csc(Nc3ccc(S(C)(=O)=O)c(F)c3)n2)cc1 [SR-35735, 4-(2-((3-Fluoro-4-(methylsulfonyl)phenyl)amino)thiazol-4-yl)-N-methylbenzenesulfonamide] | 6 | yes
COc1cc(-c2nc(Nc3ccc(S(N)(=O)=O)cc3)sc2CO)cc(OC)n1 [SR-33797, 4-((4-(2,6-Dimethoxypyridin-4-yl)-5-(hydroxymethyl)thiazol-2-yl)amino)benzenesulfonamide] | 45 | yes
COc1cc(-c2csc(Nc3ccc(S(C)(=O)=O)c(Cl)c3)n2)cc(OC)n1 [SR-33787, N-(3-chloro-4-(methylsulfonyl)phenyl)-4-(2,6-dimethoxypyridin-4-yl)thiazol-2-amine] | 80 | yes
Cc1cc(-c2csc(Nc3ccc(S(N)(=O)=O)cc3)n2)ccn1 [SR-33124, 4-((4-(2-Methylpyridin-4-yl)thiazol-2-yl)amino)benzenesulfonamide] | 30 | yes
Cc1cc(-c2csc(Nc3ccc(S(C)(=O)=O)cc3)n2)ccn1 [SR-33793, 4-(2-Methylpyridin-4-yl)-N-(4-(methylsulfonyl)phenyl)thiazol-2-amine] | 20 | yes
Cc1cc(-c2nc(Nc3ccc(S(C)(=O)=O)cc3)sc2CCl)ccn1 [SR-34893, 5-(Chloromethyl)-4-(2-methylpyridin-4-yl)-N-(4-(methylsulfonyl)phenyl)thiazol-2-amine] | 400 | yes
CS(=O)(=O)c1ccc(Nc2nc(-c3ccncc3)c(CO)s2)cc1 [SR-33795, (2-((4-(Methylsulfonyl)phenyl)amino)-4-(pyridin-4-yl)thiazol-5-yl)methanol] | 350 | yes
NS(=O)(=O)c1ccc(Nc2nc(-c3ccnc(Cl)c3)c(CO)s2)cc1 [SR-33525, 4-((4-(2-Chloropyridin-4-yl)-5-(hydroxymethyl)thiazol-2-yl)amino)benzenesulfonamide] | 65 | yes
Cc1cc(-c2csc(Nc3ccc(S(=O)(=O)O)cc3)n2)cc(C)n1 [SR-33784, 4-((4-(2,6-Dimethylpyridin-4-yl)thiazol-2-yl)amino)benzenesulfonic acid] | 25 | yes
CCN(CC)S(=O)(=O)c1ccc(-c2nc(Nc3ccc(S(N)(=O)=O)cc3)sc2CO)cc1 [SR-34774, N,N-diethyl-4-(5-(hydroxymethyl)-2-((4-sulfamoylphenyl)amino)thiazol-4-yl)benzenesulfonamide] | 150 | –
Cc1cc(-c2nc(Nc3ccc(S(C)(=O)=O)c(F)c3)sc2CO)cc(C)n1 [SR-34979, (4-(2,6-Dimethylpyridin-4-yl)-2-((3-fluoro-4-(methylsulfonyl)phenyl)amino)thiazol-5-yl)methanol] | 360 | –
CCOCc1sc(Nc2ccc(S(C)(=O)=O)cc2)nc1-c1ccnc(C)c1 [SR-35365, 5-(Ethoxymethyl)-4-(2-methylpyridin-4-yl)-N-(4-(methylsulfonyl)phenyl)thiazol-2-amine] | 450 | –
CN(C)S(=O)(=O)c1ccc(-c2nc(Nc3ccc(S(N)(=O)=O)cc3)sc2CO)cc1 [SR-34775, 4-(5-(Hydroxymethyl)-2-((4-sulfamoylphenyl)amino)thiazol-4-yl)-N,N-dimethylbenzenesulfonamide] | 60 | –
CS(=O)(=O)c1ccc(Nc2nc(-c3ccnc(Cl)c3)cs2)cc1F [SR-34972, 4-(2-Chloropyridin-4-yl)-N-(3-fluoro-4-(methylsulfonyl)phenyl)thiazol-2-amine] | 125 | –
